Experimental data as given in patent US12162857B2, “Antiviral compounds” (priority 2022, dated 2024).

System: HMPV A2 TN/94-49
Assay: HMPV antiviral assay: LLC-MK2 cells, ATP-Lite readout
Format: cell-based
Conditions: LLC-MK2, 168 h, MOI 0.005, 7 days incubation
Description: In vitro HMPV antiviral activity was evaluated using the clinical isolate A2 strain TN 94-49 and LLC-MK2 cells (ATCC #CCL-7), an immortalized kidney epithelial cell line from Macaca mulatta. Compounds were resuspended in dimethyl sulfoxide (DMSO) at 10 mM, serially diluted and added to a 384-well source plate. Subsequently, the compounds were diluted and transferred onto 384-well assay plates using the Echo-650 automated liquid handling system (Beckman Coulter, Indiana). The test compounds were assessed in duplicate at a top concentration of 2 μM followed by 2.5-fold serial dilutions to give a total of 10 concentration points. DMSO control wells were also included on the assay plates and were either infected or not, acting as positive and negative controls. A2 TN 94-49 virus infections were performed in-suspension with LLC-MK2 cells. The cells were washed twice with PBS and removed from the cell-culture flask with 0.25% trypsin-EDTA (Thermo Fisher Scientific, MA). The trypsin-EDTA was inactivated by resuspending in 2% fetal bovine serum (FBS) and OptiMEM (ThermoFisher Scientific, MA) containing 1% penicillin-streptomycin. Cells were pelleted by centrifuging for 5 minutes at 800 rpm, the supernatant was removed, and cells were re-suspended and washed in PBS plus 100 μg/mL CaCl2). This step was performed twice. Cells were then re-suspended in serum-free (SF)-OptiMEM containing 4 μg/mL TPCK-Trypsin (Sigma Aldrich, MO), 1% penicillin-streptomycin (ThermoFisher Scientific, MA) and 100 μg/mL CaCl2). Cells were counted and seeded at a density of 5,000 cells/well, 12.5 μL/well. Virus infections were done at a multiplicity of infection (MOI) of 0.005 with 12.5 μL added per well. Virus infections were performed in infection media which contained SF-OptiMEM, 100 μg/mL CaCl2) and 1% penicillin-streptomycin. HMPV viral stocks are suspended in infection media+5% glycerol, thus an equal volume of infection media+5% glycerol was added to uninfected wells to equalize the final % glycerol across all wells of the assay plate. The final concentration of TPCK-trypsin was 2 μg/mL. The assay plates were incubated at 37° C., 5% CO2 for 7 days. After 7 days incubation, 12.5 μL of ATP-Lite (PerkinElmer, MA) was added to each well and the raw luminescence values were determined using the Envision 2104 (Perkin Elmer, MA). The average of the raw luminescence values for the cells and virus only positive control wells was subtracted from all conditions tested and the percent cell health was determined by dividing these values by the average of the cells only negative control wells. EC50 values were then calculated by non-linear regression using a four-parameter curve logistic equation. The curve fit model employed was XLFit Dose Response One Site Model 200: y=(A+(B/(1+((x/C)^D)))), where A is the minimum y value, B is the maximum y value, C is the log EC50 value, and D is the slope factor. […] EC50 ranges are as follows: A<1 μM; B>1 μM.

Row | SMILES | EC50 [nM]
1 | CC(C)(O)c1cc([C@@](O)(CNC(=O)c2cc(Cl)c3nn(C4CC4)cc3c2)c2cccc(F)c2)nc(-c2ccc3c(c2Cl)OC(F)(F)O3)c1F [Example 110] | > 1000
2 | CCC(O)(CC)c1cc([C@@](O)(CNC(=O)c2cc(OC)c3nn(C(F)F)cc3c2)c2ccccc2)nc(-c2cc(Cl)c(F)cc2F)c1F [Example 117] | > 1000
3 | COc1cc(C(=O)NC[C@@](O)(c2ccccc2)c2cc(C(C)(C)O)c(Cl)c(-c3cc(Cl)c(F)cc3F)n2)cc2sc(C)nc12 [Example 131] | > 1000
4 | CC(C)(O)c1cc([C@@](O)(CNC(=O)c2cc(Cl)c3nn(C4CC4)cc3c2)c2ccccc2)nc(-c2cc(Cl)c(F)cc2F)c1Cl [Example 133] | > 1000
5 | COc1cc(C(=O)NC[C@@](O)(c2ccccc2)c2cc(C(C)(C)O)c(Cl)c(-c3cc(Cl)c(F)cc3F)n2)cc2cn(C(F)F)nc12 [Example 134] | > 1000
6 | COc1cc(C(=O)NC[C@@](O)(c2ccccc2)c2cc(C(C)(C)O)c(Cl)c(-c3ccc4c(c3Cl)OC(F)(F)O4)n2)cc2sc(C)nc12 [Example 135] | > 1000
7 | CC(C)(O)c1cc([C@@](O)(CNC(=O)c2cc(Cl)c3nn(C4CC4)cc3c2)c2ccccc2)nc(-c2ccc3c(c2Cl)OC(F)(F)O3)c1Cl [Example 137] | > 1000
8 | COc1cc(C(=O)NC[C@@](O)(c2ccccc2)c2cc(C(C)(C)O)c(Cl)c(-c3cccc(Cl)c3Cl)n2)cc2cn(C3CC3)nc12 [Example 140] | > 1000
9 | CC(C)(O)c1cc([C@@](O)(CNC(=O)c2cc(Cl)c3nn(C4CC4)cc3c2)c2ccccc2)nc(-c2cccc(Cl)c2Cl)c1Cl [Example 141] | > 1000
10 | COc1cc(C(=O)NC[C@@](O)(c2ccccc2)c2cc(C(C)(C)O)c(Cl)c(-c3cccc(Cl)c3Cl)n2)cc2cn(C(F)F)nc12 [Example 142] | > 1000
11 | COc1cc(C(=O)NC[C@@](O)(c2ccccc2)c2cc(C(C)(C)O)cc(-c3cccc(Cl)c3Cl)n2)cc2cn(C(F)F)nc12 [Example 150] | < 1000
12 | COc1cc(C(=O)NC[C@@](O)(c2ccccc2)c2cc(C(C)(C)O)cc(-c3ccc(F)c(Cl)c3Cl)n2)cc2sc(C)nc12 [Example 151] | < 1000
13 | COc1cc(C(=O)NC[C@@](O)(c2ccccc2)c2cc(C(C)(C)O)cc(-c3ccc(F)c(Cl)c3Cl)n2)cc2cn(C3CC3)nc12 [Example 152] | < 1000
14 | CC(C)(O)c1cc(-c2ccc(F)c(Cl)c2Cl)nc([C@@](O)(CNC(=O)c2cc(Cl)c3nn(C4CC4)cc3c2)c2ccccc2)c1 [Example 153] | < 1000
15 | COc1cc(C(=O)NC[C@@](O)(c2ccccc2)c2cc(C(C)(C)O)cc(-c3ccc(F)c(Cl)c3Cl)n2)cc2cn(C(F)F)nc12 [Example 154] | < 1000
16 | COc1cc(C(=O)NC[C@@](O)(c2ccccc2)c2cc(C(C)(C)O)c(Cl)c(-c3ccc4c(c3Cl)OC(F)(F)O4)n2)cc2cc(C3CC3)nn12 [Example 155] | < 1000
17 | COc1cc(C(=O)NC[C@@](O)(c2ccccc2)c2cc(C(C)(C)O)cc(-c3ccc4c(c3Cl)OC(F)(F)O4)n2)cc2cn(C3CC3)nc12 [Example 156] | < 1000
18 | COc1cc(C(=O)NC[C@@](O)(c2ccccc2)c2cc(C(C)(C)O)cc(-c3ccc4c(c3Cl)OC(F)(F)O4)n2)cc2sc(C)nc12 [Example 157] | < 1000
19 | COc1cc(C(=O)NC[C@@](O)(c2ccccc2)c2cc(C(C)(C)O)cc(-c3ccc4c(c3Cl)OC(F)(F)O4)n2)cc2cn(C(F)F)nc12 [Example 158] | < 1000
20 | COc1cc(C(=O)NC[C@@](O)(c2ccccc2)c2cc(C(C)(C)C(N)=O)c(F)c(-c3cc(Cl)c(F)cc3F)n2)cc2cn(C3CC3)nc12 [Example 160] | < 1000
21 | COc1cc(C(=O)NC[C@@](O)(c2ccccc2)c2cc(C(C)(C)C(N)=O)c(F)c(-c3cc(Cl)c(F)cc3F)n2)cc2cn(C(F)F)nc12 [Example 161] | > 1000
22 | CC(C)(C(N)=O)c1cc([C@@](O)(CNC(=O)c2cc(Cl)c3nn(C4CC4)cc3c2)c2ccccc2)nc(-c2cc(Cl)c(F)cc2F)c1F [Example 162] | < 1000
23 | COc1cc(C(=O)NC[C@@](O)(c2ccccc2)c2cc(C(C)(C)C(N)=O)c(F)c(-c3cc(Cl)c(F)cc3F)n2)cc2sc(C)nc12 [Example 163] | > 1000
24 | COc1cc(C(=O)NC[C@](O)(c2cc(C3(O)COC3)c(F)c(-c3ccc(F)cc3)n2)C2CC2)cc2cn(C3CC3)nc12 [Example 166] | > 1000
25 | COc1cc(C(=O)NC[C@](O)(c2cc(C3(O)COC3)c(F)c(-c3cc(Cl)c(F)cc3F)n2)C2CC2)cc2cn(C3CC3)nc12 [Example 167] | > 1000

Other lines, results leading:

Row | EC50 [nM] | SMILES
26 | < 1000 | COc1cc(C(=O)NC[C@@](O)(c2cccc(F)c2)c2cc(C(C)(C)O)c(F)c(-c3ccc4c(c3Cl)OC(F)(F)O4)n2)cc2cn(C(F)F)nc12 [Example 111]
27 | < 1000 | COc1cc(C(=O)NC[C@@](O)(c2cccc(F)c2)c2cc(C(C)(C)O)c(F)c(-c3ccc4c(c3Cl)OC(F)(F)O4)n2)cc2cc(C3CC3)nn12 [Example 112]
28 | < 1000 | COc1cc(C(=O)NC[C@](O)(c2cc(C(C)(C)O)c(F)c(-c3cc(Cl)c(F)cc3F)n2)c2cccs2)cc2cn(C3CC3)nc12 [Example 113]
29 | < 1000 | COc1cc(C(=O)NC[C@](O)(c2cc(C(C)(C)O)c(F)c(-c3cc(Cl)c(F)cc3F)n2)c2cccs2)cc2cn(C(F)F)nc12 [Example 114]
30 | < 1000 | COc1cc(C(=O)NC[C@](O)(c2cc(C(C)(C)O)c(F)c(-c3cc(Cl)c(F)cc3F)n2)c2cccs2)cc2sc(C)nc12 [Example 115]
31 | < 1000 | CCC(O)(CC)c1cc([C@@](O)(CNC(=O)c2cc(OC)c3nn(C4CC4)cc3c2)c2ccccc2)nc(-c2cc(Cl)c(F)cc2F)c1F [Example 116]
32 | < 1000 | COc1cc(C(=O)NC[C@](O)(c2cc(C(C)(C)O)c(F)c(-c3ccc(F)c(Cl)c3F)n2)C2CC2)cc2cn(C(F)F)nc12 [Example 118]
33 | < 1000 | COc1cc(C(=O)NC[C@](O)(c2cc(C(C)(C)O)c(F)c(-c3ccc(F)c(Cl)c3F)n2)C2CC2)cc2cn(C3CC3)nc12 [Example 119]
34 | < 1000 | COc1cc(C(=O)NC[C@](O)(c2cc(C(C)(C)O)c(F)c(-c3ccc(F)c(Cl)c3F)n2)C2CC2)cc2cn(C3(F)CC3)nc12 [Example 120]
35 | < 1000 | CC(C)(O)c1cc([C@@](O)(CNC(=O)c2cc(OC3CC3)c3nn(C4CC4)cc3c2)C2CC2)nc(-c2ccc(F)c(Cl)c2F)c1F [Example 121]
36 | < 1000 | COc1cc(C(=O)NC[C@@](O)(c2ccccc2)c2cc(C(C)(C)O)c(F)c(-c3ccc(F)c(Cl)c3F)n2)cc2cn(C(F)F)nc12 [Example 122]
37 | < 1000 | COc1cc(C(=O)NC[C@@](O)(c2ccccc2)c2cc(C(C)(C)O)c(F)c(-c3ccc(F)c(Cl)c3F)n2)cc2cn(C3(F)CC3)nc12 [Example 124]
38 | < 1000 | CC(C)(O)c1cc([C@@](O)(CNC(=O)c2cc(OC3CC3)c3nn(C4CC4)cc3c2)c2ccccc2)nc(-c2ccc(F)c(Cl)c2F)c1F [Example 125]
39 | < 1000 | COc1cc(C(=O)NC[C@@](O)(c2ccccc2)c2nc(-c3cc(Cl)c(F)cc3F)c(F)c(C(C)(C)O)c2F)cc2cn(C(F)F)nc12 [Example 128]
40 | < 1000 | COc1cc(C(=O)NC[C@@](O)(c2ccccc2)c2nc(-c3cc(Cl)c(F)cc3F)c(F)c(C(C)(C)O)c2F)cc2cc(C3CC3)nn12 [Example 129]
41 | < 1000 | COc1cc(C(=O)NC[C@@](O)(c2ccccc2)c2nc(-c3cc(Cl)c(F)cc3F)c(F)c(C(C)(C)O)c2F)cc2sc(C)nc12 [Example 130]
42 | < 1000 | COc1cc(C(=O)NC[C@@](O)(c2ccccc2)c2cc(C(C)(C)O)c(Cl)c(-c3ccc4c(c3Cl)OC(F)(F)O4)n2)cc2cn(C(F)F)nc12 [Example 138]
43 | < 1000 | COc1cc(C(=O)NC[C@@](O)(c2ccccc2)c2cc(C(C)(C)O)c(Cl)c(-c3cccc(Cl)c3Cl)n2)cc2sc(C)nc12 [Example 139]
44 | < 1000 | COc1cc(C(=O)NC[C@@](O)(c2ccccc2)c2cc(C(C)(C)O)cc(-c3cccc(Cl)c3Cl)n2)cc2sc(C)nc12 [Example 147]
45 | < 1000 | COc1cc(C(=O)NC[C@@](O)(c2ccccc2)c2cc(C(C)(C)O)cc(-c3cccc(Cl)c3Cl)n2)cc2cn(C3CC3)nc12 [Example 148]
46 | < 1000 | CC(C)(O)c1cc(-c2cccc(Cl)c2Cl)nc([C@@](O)(CNC(=O)c2cc(Cl)c3nn(C4CC4)cc3c2)c2ccccc2)c1 [Example 149]
